Each block holds one compound with its values, some of them ahead of it.
How the values were obtained:
[1] = Optical characteristics, Table 3; type: physicochemical; details: for λmax, fl: 0.1 M phosphate buffer (pH 9) containing 1% DMSO; for Φfl: 0.1 M phosphate buffer (pH 9), 1% DMSO, standard 2-Me TokyoMagenta (0.42); for λmax, abs: 0.1 M phosphate buffer containing 1% DMSO
Experimental: The measurement was performed in a 0.1 M phosphate buffer (pH 9) containing 1% DMSO. pKa was obtained from the absorbance measured in a phosphate buffer (pH 9) by single-phase or two-phase curve fitting. The quantum yield was obtained by using the quantum yield of 2-Me TokyoMagenta (0.42) in a 0.1 M phosphate buffer (pH 9) as the standard.

[2] = Optical characteristics, Table 2; type: physicochemical; details: phosphate buffer (pH 9)
Experimental: The measurement was performed at pH 9.

[3] = Comparison of absorption wavelengths at pH 3 and 9 in sodium phosphate buffer (Table 1); type: physicochemical; design: λmax: unit not given beside the values; details: for λmax: sodium phosphate buffer
Experimental: The results of comparison of the absorption wavelengths of 2-Me TokyoMagenta and 2-Me TokyoGreen (9-(2′-methylphenyl)-xanthen-3-one) having oxygen atom at the 10-position of the xanthene ring are shown in FIG. 2 and Table 1. The measurement was performed at pH 3 and 9 in a sodium phosphate buffer.

β-galactosidase [4] = biological target: T1, β-galactosidase (Escherichia coli, UniProt P00722); assay: Measurement of intracellular β-galactosidase in HEK293 cells (lacZ(+) or lacZ(−)); type: cell-based; design: expressed in transfected cells; host or cells: HEK293 lacZ(+); details: 10 μM, 37° C., 30 minutes, excitation 580 nm, detection 600 to 620 nm
Experimental: The bars shown in the photographs indicate 30 μm.
2-Me TokyoMagenta βgal was introduced into cells, and it was confirmed that it functioned as a fluorescent probe for β-galactosidase measurement. The HEK293 cells (lacZ(+) or lacZ(−)) were incubated with 10 μM 2-Me TokyoMagenta βgal at 37° C. for 30 minutes in the Dulbecco's modified Eagle medium (DMEM) containing 0.1% dimethyl sulfoxide, and fluorescence spectrum was measured with an excitation wavelength of 580 nm and detection wavelength of 600 to 620 nm.
Target sequence in this assay (P00722 whole entry): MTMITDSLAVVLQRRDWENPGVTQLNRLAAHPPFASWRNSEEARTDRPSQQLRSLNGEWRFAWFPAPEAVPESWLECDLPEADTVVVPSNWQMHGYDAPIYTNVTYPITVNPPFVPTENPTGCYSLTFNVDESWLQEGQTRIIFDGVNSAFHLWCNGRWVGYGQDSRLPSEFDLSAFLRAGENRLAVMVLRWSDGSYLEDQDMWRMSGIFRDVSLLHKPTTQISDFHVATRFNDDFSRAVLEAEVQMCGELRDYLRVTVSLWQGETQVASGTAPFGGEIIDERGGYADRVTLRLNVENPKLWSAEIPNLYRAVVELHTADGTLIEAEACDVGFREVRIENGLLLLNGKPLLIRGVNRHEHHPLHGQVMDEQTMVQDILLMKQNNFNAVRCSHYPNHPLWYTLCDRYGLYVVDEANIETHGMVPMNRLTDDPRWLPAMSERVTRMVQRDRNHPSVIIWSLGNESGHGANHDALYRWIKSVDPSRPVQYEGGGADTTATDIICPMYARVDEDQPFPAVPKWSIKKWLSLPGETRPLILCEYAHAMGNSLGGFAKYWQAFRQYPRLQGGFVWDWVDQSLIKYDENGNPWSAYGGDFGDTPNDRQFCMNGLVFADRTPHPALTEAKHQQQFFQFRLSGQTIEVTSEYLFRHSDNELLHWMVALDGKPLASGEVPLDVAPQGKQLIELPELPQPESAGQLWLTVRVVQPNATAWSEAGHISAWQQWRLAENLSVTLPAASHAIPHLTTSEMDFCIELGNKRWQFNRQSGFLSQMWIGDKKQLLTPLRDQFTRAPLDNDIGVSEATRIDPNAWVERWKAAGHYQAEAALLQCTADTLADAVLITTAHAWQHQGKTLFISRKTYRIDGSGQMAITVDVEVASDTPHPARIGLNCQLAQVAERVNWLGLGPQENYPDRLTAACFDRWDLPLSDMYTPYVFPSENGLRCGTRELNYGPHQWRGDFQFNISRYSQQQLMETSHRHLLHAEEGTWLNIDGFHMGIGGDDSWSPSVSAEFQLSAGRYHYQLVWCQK

β-galactosidase [5] = biological target: T1, β-galactosidase; assay: Absorption spectra before and after treatment with β-galactosidase; type: biochemical; details: 0.1 M sodium phosphate buffer (pH 7.0), 0.1% DMSO
Experimental: The characteristics of 2-Me TokyoMagenta βgal, which was designed as a fluorescent probe for β-galactosidase measurement, as an enzyme substrate and a fluorescent probe were evaluated. There are shown absorption spectra (FIG. 3, upper left graph) and fluorescence spectra (FIG. 3, upper right graph (excitation wavelength, 582 nm) and FIG. 3, lower left graph (excitation wavelength, 448 nm)) of 2-Me TokyoMagenta βgal measured before and after a treatment with β-galactosidase (6 units) in a 0.1 M sodium phosphate buffer (pH 7.0) containing 0.1% dimethyl sulfoxide. The λmax values measured before and after the reaction were 448 nm (before the reaction), and 582 nm (after the reaction), respectively.
Target sequence in this assay (P00722 2-1024): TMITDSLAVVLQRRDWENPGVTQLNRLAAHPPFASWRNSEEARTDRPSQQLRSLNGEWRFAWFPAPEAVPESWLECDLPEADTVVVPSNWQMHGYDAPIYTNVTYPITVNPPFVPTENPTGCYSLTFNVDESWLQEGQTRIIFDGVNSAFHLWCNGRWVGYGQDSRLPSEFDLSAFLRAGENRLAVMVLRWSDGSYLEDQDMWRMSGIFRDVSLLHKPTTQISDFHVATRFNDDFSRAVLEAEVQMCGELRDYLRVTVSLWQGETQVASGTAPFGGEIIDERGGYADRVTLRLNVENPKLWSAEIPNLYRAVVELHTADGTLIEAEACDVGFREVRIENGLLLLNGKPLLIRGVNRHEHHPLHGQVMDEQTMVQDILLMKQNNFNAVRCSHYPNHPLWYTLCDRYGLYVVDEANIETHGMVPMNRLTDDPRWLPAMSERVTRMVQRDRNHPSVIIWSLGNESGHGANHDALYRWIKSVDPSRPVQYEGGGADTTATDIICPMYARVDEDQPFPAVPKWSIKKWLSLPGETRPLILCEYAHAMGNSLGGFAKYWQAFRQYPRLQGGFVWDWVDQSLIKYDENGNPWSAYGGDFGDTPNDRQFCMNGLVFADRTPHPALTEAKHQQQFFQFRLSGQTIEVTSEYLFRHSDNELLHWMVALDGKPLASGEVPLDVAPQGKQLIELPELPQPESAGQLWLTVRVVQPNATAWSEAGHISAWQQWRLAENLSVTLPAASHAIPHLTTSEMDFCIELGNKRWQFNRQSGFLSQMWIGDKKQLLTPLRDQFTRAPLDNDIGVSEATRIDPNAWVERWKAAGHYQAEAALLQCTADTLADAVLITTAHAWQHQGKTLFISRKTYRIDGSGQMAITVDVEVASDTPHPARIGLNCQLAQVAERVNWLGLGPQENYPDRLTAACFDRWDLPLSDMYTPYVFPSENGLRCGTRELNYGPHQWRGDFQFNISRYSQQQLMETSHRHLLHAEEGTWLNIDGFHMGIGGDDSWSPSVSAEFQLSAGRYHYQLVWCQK

β-galactosidase [6] = biological target: T1, β-galactosidase; assay: Hydrolysis reaction by β-galactosidase monitored by fluorescence intensity over time; type: biochemical; details: 1 μM probe, 37° C., 0.1 M sodium phosphate buffer (pH 7.4), 0.1% DMSO, one unit β-galactosidase
Text: As a control, 2-Me-4-OMe TokyoGreen βgal was used, which had been already widely used as a fluorescent probe for β-galactosidase measurement.
Advance of the hydrolysis reaction of 2-Me TokyoMagenta βgal by β-galactosidase was monitored by periodically measuring fluorescence intensity. As a control, 2-Me-4-OMe TokyoGreen βgal (9-(4′-methoxy-2′-methylphenyl)-6-(β-D-galactopyranosyloxy)-xanthen-3-one), which had been already widely used as a fluorescent probe for β-galactosidase measurement, was used. The reaction was performed at 37° C. in a 0.1 M sodium phosphate buffer (pH 7.4) containing 1 μM 2-Me TokyoMagenta βgal or 2-Me-4-OMe TokyoGreen βgal and 0.1% dimethyl sulfoxide. One unit (1.3 μg) of β-galactosidase was added 40 seconds afterward.
Target sequence in this assay (P00722 2-1024): as above

physchem = type: physicochemical
Experimental: In the table, the items attached with the letter a were measured in a phosphate buffer (pH 9), and the item attached with the letter b was measured in a 0.1 M phosphate buffer containing 1% DMSO.
The measurement was performed in a 0.1 M phosphate buffer (pH 9) containing 1% DMSO. pKa was obtained from the absorbance measured in a phosphate buffer (pH 9) by single-phase or two-phase curve fitting.

[7] = Absorption and fluorescence profiles at various pH values (Example 2); type: physicochemical; details: for maximal absorption wavelength: 1 μM in 0.1 M phosphate buffer, 1% DMSO
Experimental: The measurement was performed with changing pH. In this specification, Me means methyl group. […] The measurement was performed by using a 1 μM solution of 2-Me TokyoMagenta dissolved in a 0.1 M phosphate buffer containing 1% dimethyl sulfoxide (DMSO).
Absorption and fluorescence profiles of 2-Me TokyoMagenta obtained in the step (g) mentioned above were measured at various pH values. […] It is considered that 2-Me TokyoMagenta exists in an equilibrated state of the non-dissociated form (neutral form) and the dissociated form (anion form) mentioned below depending on pH.

[8] = Fluorescence profiles at various pH values, excitation 471 nm (Example 6); type: physicochemical; details: shift of pH from the acidic side to the alkaline side
Experimental: The measurement was performed with changing pH (excitation wavelength, 471 nm) by using a 1 μM solution of 2-Me TokyoMagenta dissolved in a 0.1 M phosphate buffer containing 1% dimethyl sulfoxide (DMSO).
Absorption and fluorescence profiles of 2-Me TokyoMagenta obtained in the step (g) mentioned above were measured at various pH values (excitation wavelength, 471 nm). It was confirmed that, with the shift of pH from the acidic side to the alkaline side, fluorescence intensity decreased around 590 nm, and fluorescence intensity increased around 560 nm.

- λmax, fl [1]: 607 nm
- Φfl [1]: 0.48
- λmax, abs ([1]; pH 9): 591 nm
SMILES: C[Si]1(C)C2=C(Cl)C(=O)C=CC2=C(c2ccccc2C(=O)O)c2ccc(O)c(Cl)c21 [2-COOH DCTM]

- λmax, fl [1]: 596 nm
- Φfl [1]: 0.54
- λmax, abs ([1]; pH 9): 581 nm
SMILES: C[Si]1(C)C2=C(F)C(=O)C=CC2=C(c2ccccc2C(=O)O)c2ccc(O)c(F)c21 [2-COOH DFTM]

- λmax, fl [1]: 607 nm
- Φfl [1]: 0.48
- λmax, abs ([1]; pH 3): 477 nm
- λmax, abs ([1]; pH 9): 595 nm
SMILES: Cc1ccccc1C1=C2C=CC(=O)C(Cl)=C2[Si](C)(C)c2c1ccc(O)c2Cl [2-Me DCTM]

- λmax, fl [1]: 598 nm
- Φfl [1]: 0.57
- λmax, abs ([1]; pH 3): 465 nm
- λmax, abs ([1]; pH 9): 583 nm
SMILES: Cc1ccccc1C1=C2C=CC(=O)C(F)=C2[Si](C)(C)c2c1ccc(O)c2F [2-Me DFTM]

- Φfl [2]: 0.48
- λabs [2]: 582 nm
- λfl [2]: 601 nm
SMILES: CC[Si]1(CC)C2=CC(=O)C=CC2=C(c2ccccc2C)c2ccc(O)cc21 [2-Me DiEtTM]

Further lines, the compound ahead of its results:

SMILES: C[Si]1(C)C2=CC(=O)C=CC2=C(c2ccccc2C(=O)O)c2ccc(O)cc21 [2-COOH TM]
- λmax, fl [1]: 598 nm
- Φfl [1]: 0.38
- λmax, abs ([1]; pH 9): 582 nm

SMILES: Cc1ccccc1-c1c2ccc(=O)cc-2oc2ccccc12 [2-Me TokyoGreen, 9-(2′-methylphenyl)-xanthen-3-one, reference compound]
- λmax ([3]; Anion form (pH 9)): 492
- λmax ([3]; Neutral form (pH 3)): 439

SMILES: Cc1ccccc1C1=C2C=CC(=O)C=C2[Si](C)(C)c2cc(O[C@@H]3O[C@H](CO)[C@H](O)[C@H](O)[C@H]3O)ccc21 [2-Me TokyoMagenta βgal]
- fluorescence in cells (β-galactosidase [4]; HEK293 lacZ(+) cells): fluorescence emitted by the fluorescent probe hydrolyzed by β-galactosidase was confirmed
- fluorescence in cells (β-galactosidase [4]; HEK293 lacZ(−) cells): fluorescence was not observed
- λmax after the reaction (β-galactosidase [5]; after β-galactosidase (6 units)): 582 nm
- λmax before the reaction (β-galactosidase [5]; before β-galactosidase (6 units)): 448 nm
- fluorescence response on hydrolysis by β-galactosidase (β-galactosidase [6]): increase of fluorescence intensity due to red shift

SMILES: Cc1ccccc1C1=C2C=CC(=O)C=C2[Si](C)(C)c2cc(O)ccc21 [2-Me TokyoMagenta]
- pKa (physchem): 6.8
- Φfl [2]: 0.42
- λabs [2]: 582 nm
- λfl [2]: 598 nm
- maximal absorption wavelength ([7]; acidic side of pH): around 471 nm
- maximal absorption wavelength ([7]; alkaline side of pH): around 582 nm
- Φfl ([7]; anion form): 0.42
- ε ([7]; anion form): 110000
- Φfl ([7]; neutral form): 0.10
- ε ([7]; neutral form): 29000
- fluorescence emission with excitation light of 550 nm ([7]; shift of pH from the acidic side to the alkaline side): significantly increased
- fluorescence intensity around 560 nm [8]: increased
- fluorescence intensity around 590 nm [8]: decreased
- λmax ([3]; Anion form (pH 9)): 582
- λmax ([3]; Neutral form (pH 3)): 471
- absorption wavelength change with change of pH ([3]; compared with 2-Me TokyoGreen, pH 3 and 9): larger absorption wavelength change
- λmax, fl [1]: 598 nm
- Φfl [1]: 0.42
- λmax, abs ([1]; pH 3): 472 nm
- λmax, abs ([1]; pH 9): 582 nm

SMILES: COc1ccc(-c2c3ccc(=O)cc-3oc3cc(O[C@@H]4O[C@H](CO)[C@H](O)[C@H](O)[C@H]4O)ccc23)c(C)c1 [2-Me-4-OMe TokyoGreen βgal, 9-(4′-methoxy-2′-methylphenyl)-6-(β-D-galactopyranosyloxy)-xanthen-3-one, reference compound]
- fluorescence response on hydrolysis by β-galactosidase (β-galactosidase [6]): fluorescence was generated by cancellation of PET

Source: patent US9688857B2, “Fluorescent probe” (THE UNIVERSITY OF TOKYO, priority 2011, dated 2017)
